Assay results as given in patent US20040248953A1, “3-Arylsulfanyl and 3-heteroarylsulfanyl substituted benzo[b]thiophenes as therapeutic agents” (priority 2003, published 2004).
pIC50: −log10 of the molar value.

biological target: T1, PI3Kγ (Homo sapiens, UniProt P48736); experiment: PI3Kγ in vitro kinase assay (32P-ATP, PIP2 lipid micelles, filter plate); format: biochemical; settings: purified recombinant p101/p110γ protein with G protein β1/γ2 subunits; 20 μM ATP; 25 μM PIP2; 20 minutes at room temperature
T1 construct: HA; made in house; host or cells: Spodoptera frugiperda (Sf9) cells, baculovirus coinfection
T1 sequence (P48736 whole entry, species assumed): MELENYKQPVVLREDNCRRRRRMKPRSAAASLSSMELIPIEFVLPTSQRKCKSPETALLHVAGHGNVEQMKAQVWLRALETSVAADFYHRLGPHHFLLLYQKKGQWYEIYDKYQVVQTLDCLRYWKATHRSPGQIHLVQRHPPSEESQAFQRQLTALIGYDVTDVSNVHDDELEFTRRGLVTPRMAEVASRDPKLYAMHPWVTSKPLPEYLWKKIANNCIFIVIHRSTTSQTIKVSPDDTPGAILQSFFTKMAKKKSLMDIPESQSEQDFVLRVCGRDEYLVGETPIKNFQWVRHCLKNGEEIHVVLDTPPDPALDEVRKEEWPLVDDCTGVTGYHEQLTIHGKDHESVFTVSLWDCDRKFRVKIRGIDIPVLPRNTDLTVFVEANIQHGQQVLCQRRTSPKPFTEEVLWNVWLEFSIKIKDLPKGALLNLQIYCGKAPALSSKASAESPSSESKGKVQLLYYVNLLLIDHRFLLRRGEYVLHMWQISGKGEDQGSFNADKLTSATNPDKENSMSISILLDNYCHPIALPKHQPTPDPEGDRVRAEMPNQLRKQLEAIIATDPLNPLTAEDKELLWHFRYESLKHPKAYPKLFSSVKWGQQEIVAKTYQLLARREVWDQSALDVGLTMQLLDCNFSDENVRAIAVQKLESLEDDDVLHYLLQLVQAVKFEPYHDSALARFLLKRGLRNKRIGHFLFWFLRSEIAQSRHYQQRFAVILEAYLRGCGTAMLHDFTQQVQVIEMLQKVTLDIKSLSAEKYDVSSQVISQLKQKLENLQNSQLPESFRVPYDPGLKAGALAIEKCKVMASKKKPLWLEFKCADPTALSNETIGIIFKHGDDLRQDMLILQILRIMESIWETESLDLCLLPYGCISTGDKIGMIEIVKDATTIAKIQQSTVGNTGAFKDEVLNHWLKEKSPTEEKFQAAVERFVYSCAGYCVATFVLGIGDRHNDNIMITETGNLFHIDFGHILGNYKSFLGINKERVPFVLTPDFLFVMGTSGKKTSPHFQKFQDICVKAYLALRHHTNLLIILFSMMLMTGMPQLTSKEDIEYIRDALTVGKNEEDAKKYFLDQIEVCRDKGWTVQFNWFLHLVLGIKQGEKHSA
T1 sequence (Q8WYR1 whole entry partner, species assumed): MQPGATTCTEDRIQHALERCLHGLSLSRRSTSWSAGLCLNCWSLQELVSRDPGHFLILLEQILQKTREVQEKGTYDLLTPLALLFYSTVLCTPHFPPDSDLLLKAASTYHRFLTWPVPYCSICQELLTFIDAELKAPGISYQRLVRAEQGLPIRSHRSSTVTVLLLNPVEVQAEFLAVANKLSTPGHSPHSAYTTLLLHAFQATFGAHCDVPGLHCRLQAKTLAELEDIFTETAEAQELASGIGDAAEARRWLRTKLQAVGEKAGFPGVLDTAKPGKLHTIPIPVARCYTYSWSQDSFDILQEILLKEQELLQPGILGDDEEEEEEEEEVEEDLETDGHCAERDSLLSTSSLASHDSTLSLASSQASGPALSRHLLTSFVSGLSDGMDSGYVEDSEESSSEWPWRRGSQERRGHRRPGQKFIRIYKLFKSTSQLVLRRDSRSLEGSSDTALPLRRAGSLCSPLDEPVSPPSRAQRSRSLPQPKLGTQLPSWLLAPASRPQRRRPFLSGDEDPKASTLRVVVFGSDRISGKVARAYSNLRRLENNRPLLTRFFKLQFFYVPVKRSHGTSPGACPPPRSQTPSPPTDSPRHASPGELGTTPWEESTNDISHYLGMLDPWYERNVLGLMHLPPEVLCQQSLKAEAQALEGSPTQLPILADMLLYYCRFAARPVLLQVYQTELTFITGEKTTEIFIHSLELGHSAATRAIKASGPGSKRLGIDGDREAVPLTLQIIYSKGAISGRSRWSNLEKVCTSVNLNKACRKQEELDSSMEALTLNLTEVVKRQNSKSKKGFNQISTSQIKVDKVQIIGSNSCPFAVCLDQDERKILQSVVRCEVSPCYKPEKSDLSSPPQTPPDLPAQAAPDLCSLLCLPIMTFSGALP
Protocol: Spodtera frugiperda cells, grown in ESF921 media, were coinfected with baculovirus expressing a glu-tagged p101 and baculovirus expressing an HA-tagged p110γ, at a 3:1 ratio of p101 baculovirus to p110γ baculovirus. Sf9 cells were grown to 1×10^7 total cells/mL in 10 L bioreactors and harvested 48-72 hours post infection. Samples of infected cells were then tested for expression of p101/p110γ PI3 kinase by immunoprecipitation and Western Blot analysis methods (see below). To purify PI3Kγ, 4 volumes of room temperature hypotonic lysis buffer (1 mM MgCl2, 1 mM DTT, 5 mM EGTA, 1 mM Pefabloc, 0.5 μM aprotinin, 5 μM leupeptin, 2 μM pepstatin, 5 μM E64, pH 8) per gram of cell paste, was poured onto frozen cell pellets with stirring, then lysed in a nitrogen “bomb” at 400 psi (599HC […], Parr Instrument Co, Moline, Ill.). NaCl was added to 150 mM, and sodium cholate was added to 1% and mixed for another 45 minutes. The lysates were clarified by centrifugation for 25 minutes at 14,000 rpm. The lysates were then loaded over anti-glu-linked Protein-G Sepaharose beads (Covance Research Products, Richmond, Calif.) using 20 mL resin/50 g cell paste. The column was washed with 15 volumes of wash buffer (1 mM DTT, 0.2 mM EGTA, 1 mM Pefabloc, 0.5 μM aprotinin, 5 μM leupeptin, 2 μM pepstatin, 5 μM E64, 150 mM NaCl, 1% sodium cholate, pH 8). PI3Kγ was eluted with 6 column volumes of wash buffer that contain 100 μg/mL of a peptide that competes for binding of the glu tag. The column fractions with the eluted protein (determined by taking OD280 readings) were collected and dialyzed in 0.2 mM EGTA, 1 mM DTT, 1 mM Pefabloc, 5 μM leupeptin, 0.5% sodium cholate, 150 mM NaCl, and 50% glycerol, pH 8. The fractions were stored at -80° C. until further use. Spodtera frugiperda cells were coinfected with baculovirus expressing a glu-tagged G protein β1 and baculovirus expressing a […], at a 1:1 ratio of glu-tagged G protein β1 baculovirus to G protein β2 baculovirus. Sf9 cells are grown in 10 L bioreactors and harvested 48-72 hours post infection. Samples of infected cells were tested for G protein β1/β2 expression by Western Blot analysis, as described below. Cell lysates were homogenized and loaded onto a column of glu-tagged beads as in Biological Example 1 and competed off the column with a glu peptide and processed as described in Biological Example 1. The inhibitory properties of the compounds in Table 1 were assayed in an in vitro PI3K assay. In a 96-well polypropylene plate, each well was spotted with […] of 50 times the desired final concentration of compound in DMSO. Purified recombinant p101/p110γ protein (0.03 μg; 2.7 nM) and G protein β1/γ2 subunits (0.09 μg; 57.7 nM) for each reaction was combined in the assay buffer (30 mM HEPES, 100 mM NaCl, 1 mM EGTA, and 1 mM DTT). ATP and [γ-^32P-ATP] (0.09 μCi) were added to this mixture so that the final ATP concentration in the reaction was 20 μM. Lipid micelles were formed by sonicating phosphatidylinositol4,5-diphosphate (PIP2), phosphatidylethanolamine (PE), and Na-cholate in the assay buffer for 10 minutes, adding MgCl2 and incubating on ice for 20 minutes, for final concentrations of 25 μM PIP2, 300 μM PE, 0.02% Na-cholate, and 10 mM MgCl2 in the reaction. The reactions were started by adding equal volumes lipid and enzyme mixture in a total volume of 50 μL, allowed to run for 20 minutes at room temperature, and stopped with 100 μL 75 mM H3PO4. The lipid product was transferred to a glass fiber filter plate and washed with 75 mM H3PO4 several times. The presence of radioactive lipid product (PIP3) was measured by adding Wallac Optiphase mix to each well and counting in a Wallac 1450 Trilux plate reader (PerkinElmer Life Sciences Inc., Boston, Mass. 02118). The IC50 for each compound tested is reported in μM in Table 1: […]

**Q.** With “3-(2,3-dichloro-phenylsulfanyl)-5-methoxy-benzo[b]thiophene-2-carboxylic acid(1H-tetrazol-5-yl)-amide [Example 25]” as the molecule, how does the pIC50 read?
**A.** The pIC50 was 5.46.

**Q.** With “3-(3-Chloro-phenylsulfanyl)-5-methoxy-6-methyl-benzo[b]thiophene-2-carboxylic acid(1H-tetrazol-5-yl)-amide [Example 33]” as the molecule, how does the pIC50 read?
**A.** The pIC50 was 6.77.

**Q.** “3-[2-(Acetyl-methyl-amino)-1-phenyl-propylsulfanyl]-6-methoxy-5-methyl-benzo[b]thiophene-2-carboxylic acid(1H-tetrazol-5-yl)-amide [Example 43]” was tested. Which pIC50 did it give?
**A.** Its pIC50 is 6.67.

**Q.** With “5,6-dimethoxy-3-phenethylsulfanyl-benzo[b]thiophene-2-carboxylic acid(1H-tetrazol-5-yl)-amide [Example 13]” as the molecule, how does the pIC50 read?
**A.** Its pIC50 is 6.28.

**Q.** With “5-Ethoxy-3-phenethylsulfanyl-benzo[b]thiophene-2-carboxylic acid(1H-tetrazol-5-yl)-amide [Example 52]” as the molecule, how does the pIC50 read?
**A.** The pIC50 was 5.55.

**Q.** “5-methoxy-3-(2-methyl-furan-3-ylsulfanyl)-benzo[b]thiophene-2-carboxylic acid(1H-tetrazol-5-yl)-amide [Example 16]” was tested. Which pIC50 did it give?
**A.** The pIC50 was 5.66.

**Q.** With `COc1cc2sc(C(=O)Nc3nnn[nH]3)c(Sc3ccccc3)c2cc1OC` [Example 1, 5,6-Dimethoxy-3-phenylsulfanyl-benzo[b]thiophene-2-carboxylic acid(1H-tetrazol-5-yl)-amide] as the molecule, how does the pIC50 read?
**A.** The pIC50 was 7.22.

**Q.** `COc1cc2c(Sc3ccccc3)c(C(=O)Nc3nnn[nH]3)sc2cc1C` [Example 2, 5-Methoxy-6-methyl-3-phenylsulfanyl-benzo[b]thiophene-2-carboxylic acid(1H-tetrazol-5-yl)-amide] was tested. Which pIC50 did it give?
**A.** The pIC50 was 6.75.

**Q.** With `CCOc1ccc2sc(C(=O)Nc3nnn[nH]3)c(Sc3ccccc3)c2c1` [Example 3, 5-Ethoxy-3-phenylsulfanyl-benzo[b]thiophene-2-carboxylic acid (1H-tetrazol-5-yl)-amide] as the molecule, how does the pIC50 read?
**A.** Its pIC50 is 6.60.

**Q.** `COc1ccc2sc(C(=O)Nc3nnn[nH]3)c(Sc3ccc(O)cc3)c2c1` [Example 4, 3-(4-hydroxy-phenylsulfanyl)-5-methoxy-benzo[b]thiophene-2-carboxylic acid(1H-tetrazol-5-yl)-amide] was tested. Which pIC50 did it give?
**A.** The pIC50 was 5.56.

**Q.** With `COc1cc2sc(C(=O)Nc3nnn[nH]3)c(Sc3ccccc3C)c2cc1OC` [Example 5, 5,6-dimethoxy-3-o-tolysulfanyl-benzo[b]thiophene-2-carboxylic acid(1H-tetrazol-5-yl)-amide] as the molecule, how does the pIC50 read?
**A.** The pIC50 was 5.90.

**Q.** `CCc1ccccc1Sc1c(C(=O)Nc2nnn[nH]2)sc2cc(OC)c(OC)cc12` [Example 6, 3-(2-ethyl-phenylsulfanyl)-5,6-dimethoxy-benzo[b]thiophene-2-carboxylic acid(1H-tetrazol-5-yl)-amide] was tested. Which pIC50 did it give?
**A.** The pIC50 was 5.93.

**Q.** With `COc1cc2sc(C(=O)Nc3nnn[nH]3)c(Sc3cccc(Cl)c3)c2cc1OC` [Example 7, 3-(3-chloro-phenylsulfanyl)-5,6-dimethoxy-benzo[b]thiophene-2-carboxylic acid(1H-tetrazol-5-yl)-amide] as the molecule, how does the pIC50 read?
**A.** Its pIC50 is 5.70.

**Q.** `COc1cc2sc(C(=O)Nc3nnn[nH]3)c(Sc3ccc(Cl)cc3)c2cc1OC` [Example 8, 3-(4-chloro-phenylsulfanyl)-5,6-dimethoxy-benzo[b]thiophene-2-carboxylic acid(1H-tetrazol-5-yl)-amide] was tested. Which pIC50 did it give?
**A.** Its pIC50 is 5.43.

**Q.** How did the pIC50 turn out when `COc1cc2sc(C(=O)Nc3nnn[nH]3)c(Sc3ccc(C)cc3C)c2cc1OC` [Example 9, 3-(2,4-dimethyl-phenylsulfanyl)-5,6-dimethoxy-benzo[b]thiophene-2-carboxylic acid(1H-tetrazol-5-yl)-amide] was run?
**A.** The pIC50 was 5.55.

**Q.** With `COc1cc2sc(C(=O)Nc3nnn[nH]3)c(Sc3cccc(Cl)c3Cl)c2cc1OC` [Example 10, 3-(2,3-dichloro-phenylsulfanyl)-5,6-dimethoxy-benzo[b]thiophene-2-carboxylic acid(1H-tetrazol-5-yl)-amide] as the molecule, how does the pIC50 read?
**A.** Its pIC50 is 5.95.

**Q.** How did the pIC50 turn out when `COc1cc2sc(C(=O)Nc3nnn[nH]3)c(Sc3ccc(C)c(C)c3)c2cc1OC` [Example 11, 3-(3,4-dimethyl-phenylsulfanyl)-5,6-dimethoxy-benzo[b]thiophene-2-carboxylic acid(1H-tetrazol-5-yl)-amide] was run?
**A.** Its pIC50 is 5.68.

**Q.** `COc1cc2sc(C(=O)Nc3nnn[nH]3)c(Sc3ccc(Cl)c(Cl)c3)c2cc1OC` [Example 12, 3-(3,4-dichloro-phenylsulfanyl)-5,6-dimethoxy-benzo[b]thiophene-2-carboxylic acid(1H-tetrazol-5-yl)-amide] was tested. Which pIC50 did it give?
**A.** Its pIC50 is 5.91.

**Q.** How did the pIC50 turn out when `COc1cc(Sc2c(C(=O)Nc3nnn[nH]3)sc3cc(OC)c(OC)cc23)ccc1O` [Example 14, 3-(4-hydroxy-3-methoxy-phenylsulfanyl)-5,6-dimethoxy-benzo[b]thiophene-2-carboxylic acid(1H-tetrazol-5-yl)-amide] was run?
**A.** The pIC50 was 5.64.

**Q.** How did the pIC50 turn out when `COc1ccc(OC)c(Sc2c(C(=O)Nc3nnn[nH]3)sc3cc(OC)c(OC)cc23)c1` [Example 15, 3-(2,5-dimethoxy-phenylsulfanyl)-5,6-dimethoxy-benzo[b]thiophene-2-carboxylic acid(1H-tetrazol-5-yl)-amide] was run?
**A.** The pIC50 was 6.21.

**Q.** `COc1ccc2sc(C(=O)Nc3nnn[nH]3)c(Sc3ccccc3)c2c1` [Example 17, 5-methoxy-3-phenylsulfanyl-benzo[b]thiophene-2-carboxylic acid(1H-tetrazol-5-yl)-amide] was tested. Which pIC50 did it give?
**A.** The pIC50 was 5.58.

**Q.** `COc1ccc2sc(C(=O)Nc3nnn[nH]3)c(Sc3ccccc3C)c2c1` [Example 18, 5-methoxy-3-o-tolysulfanyl-benzo[b]thiophene-2-carboxylic acid (1H-tetrazol-5-yl)-amide] was tested. Which pIC50 did it give?
**A.** Its pIC50 is 6.33.

**Q.** With `COc1ccc2sc(C(=O)Nc3nnn[nH]3)c(Sc3ccccc3Cl)c2c1` [Example 19, 3-(2-chloro-phenylsulfanyl)-5-methoxy-benzo[b]thiophene-2-carboxylic acid(1H-tetrazol-5-yl)-amide] as the molecule, how does the pIC50 read?
**A.** Its pIC50 is 5.65.

**Q.** `COc1ccc2sc(C(=O)Nc3nnn[nH]3)c(Sc3ccccc3Br)c2c1` [Example 20, 3-(2-bromo-phenylsulfanyl)-5-methoxy-benzo[b]thiophene-2-carboxylic acid(1H-tetrazol-5-yl)-amide] was tested. Which pIC50 did it give?
**A.** The pIC50 was 5.53.

**Q.** How did the pIC50 turn out when `COc1ccc2sc(C(=O)Nc3nnn[nH]3)c(Sc3cccc(Cl)c3)c2c1` [Example 21, 3-(3-chloro-phenylsulfanyl)-5-methoxy-benzo[b]thiophene-2-carboxylic acid(1H-tetrazol-5-yl)-amide] was run?
**A.** Its pIC50 is 5.37.

**Q.** `COc1cccc(Sc2c(C(=O)Nc3nnn[nH]3)sc3ccc(OC)cc23)c1` [Example 22, 5-methoxy-3-(3methoxyphenylsulfanyl)-benzo[b]thiophene-2-carboxylic acid(1H-tetrazol-5-yl)-amide] was tested. Which pIC50 did it give?
**A.** Its pIC50 is 5.53.

**Q.** `COc1ccc2sc(C(=O)Nc3nnn[nH]3)c(Sc3ccc(Cl)cc3)c2c1` [Example 23, 3-(4-chloro-phenylsulfanyl)-5-methoxy-benzo[b]thiophene-2-carboxylic acid(1H-tetrazol-5-yl)-amide] was tested. Which pIC50 did it give?
**A.** Its pIC50 is 5.31.

**Q.** How did the pIC50 turn out when `COc1ccc(OC)c(Sc2c(C(=O)Nc3nnn[nH]3)sc3ccc(OC)cc23)c1` [Example 24, 3-(2,5-dimethoxy-phenylsulfanyl)-5-methoxy-benzo[b]thiophene-2-carboxylic acid(1H-tetrazol-5-yl)-amide] was run?
**A.** The pIC50 was 5.91.

**Q.** With `COc1ccc2sc(C(=O)Nc3nnn[nH]3)c(SCCc3ccccc3)c2c1` [Example 26, 5-methoxy-3-phenethylsulfanyl-benzo[b]thiophene-2-carboxylic acid(1H-tetrazol-5-yl)-amide] as the molecule, how does the pIC50 read?
**A.** The pIC50 was 5.80.
